Reference: patent US7632839B2, “Mitotic kinesin inhibitors” (Merck & Co. Inc., priority 2005, dated 2009)

Biological target: T1, human KSP motor domain (KSP(367H)) (Homo sapiens, UniProt P52732)
T1 construct: were used to amplify the motor domain and the neck linker region; made in house; host or cells: E. coli BL21 (DE3), pRSETa
T1 sequence (P52732 18-359 limits assumed): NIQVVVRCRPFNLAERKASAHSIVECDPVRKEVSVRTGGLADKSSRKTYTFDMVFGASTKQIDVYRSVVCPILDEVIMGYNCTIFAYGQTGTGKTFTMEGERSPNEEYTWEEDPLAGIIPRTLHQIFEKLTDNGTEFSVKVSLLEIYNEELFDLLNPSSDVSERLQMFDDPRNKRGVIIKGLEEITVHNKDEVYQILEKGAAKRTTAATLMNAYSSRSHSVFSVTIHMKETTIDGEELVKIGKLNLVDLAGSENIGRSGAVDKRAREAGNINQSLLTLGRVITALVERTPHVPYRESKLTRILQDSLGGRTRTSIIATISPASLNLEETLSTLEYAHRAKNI
Test: Kinesin ATPase In Vitro Assay
Type: biochemical
Conditions: KSP motor domain with microtubules, 1 mM ATP, 23° C.
From the text: I. Kinesin ATPase In Vitro Assay
Cloning and Expression of Human Poly-Histidine Tagged KSP Motor Domain (KSP(367H))
Plasmids for the expression of the human KSP motor domain construct were cloned by PCR using a pBluescript full length human KSP construct (Blangy et al., Cell, vol. 83, pp 1159-1169, 1995) as a template. The N-terminal primer 5′-[…] (SEQ.ID.NO.: 1) and the C-terminal primer 5′-[…] […] (SEQ.ID.NO.: 2) were used to amplify the motor domain and the neck linker region. The PCR products were digested with AseI and XhoI, ligated into the NdeI/XhoI digestion product of pRSETa (Invitrogen) and transformed into E. coli BL21 (DE3).
Cells were grown at 37° C. to an OD600 of 0.5. […]
The kinesin motor domain is incubated with microtubules, 1 mM ATP (1:1 MgCl2: Na-ATP), and compound at 23° C. in buffer containing 80 mM K-HEPES (pH 7.0), 1 mM EGTA, 1 mM DTT, 1 mM MgCl2, and 50 mM KCl. […] Free phosphate from the ATP hydrolysis reaction is measured via a quinaldine red/ammonium molybdate assay by adding 150 μl of quench C buffer containing a 2:1 ratio of quench A:quench B. Quench A contains 0.1 mg/ml quinaldine red and 0.14% polyvinyl alcohol; quench B contains 12.3 mM ammonium molybdate tetrahydrate in 1.15 M sulfuric acid. The reaction is incubated for 10 minutes at 23° C., and the absorbance of the phospho-molybdate complex is measured at 540 nm.

IC50: ≤ 50 µM
SMILES: Cc1ccc(C(=O)N(CC(F)CN)C(c2nc3cnccc3c(=O)n2Cc2ccccc2)C(C)C)cc1 [Compound I-13, N-(3-amino-2-(R,S)-fluoropropyl)-N-[1-(3-benzyl-4-oxo-3,4-dihydropyrido[3,4-d]pyrimidin-2-yl)-2-(R,S)-methylpropyl]-4-methylbenzamide]
